PubChem BioAssay (NCI)
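Protocol summary: plate cells (96-well), add compound at 5 concentrations, incubate 48 h, interpolate endpoints linearly. GI50: concentration for 50% inhibition of growth. At the TGI there is no net growth.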

What was measured:
Experiment in all cases: growth of human tumour cells (NCI), 48 h; in the data active means GI50 below about 0.43 µM; inactive means the rest
HS 578T breast = test system: HS 578T breast
SW-620 colon = test system: SW-620 colon
RPMI-8226 leukemia = test system: RPMI-8226 leukemia
OVCAR-4 ovarian = test system: OVCAR-4 ovarian
IGROV1 ovarian = test system: IGROV1 ovarian
COLO 205 colon = test system: COLO 205 colon
SF-268 CNS = test system: SF-268 CNS
EKVX NSCLC = test system: EKVX NSCLC
SK-MEL-28 melanoma = test system: SK-MEL-28 melanoma
NCI/ADR-RES ovarian = test system: NCI/ADR-RES ovarian
SR leukemia = test system: SR leukemia
DU-145 prostate = test system: DU-145 prostate
HCC-2998 colon = test system: HCC-2998 colon
SK-MEL-5 melanoma = test system: SK-MEL-5 melanoma
M14 melanoma = test system: M14 melanoma
SK-MEL-2 melanoma = test system: SK-MEL-2 melanoma
HOP-92 NSCLC = test system: HOP-92 NSCLC
SNB-19 CNS = test system: SNB-19 CNS
RXF 393 renal = test system: RXF 393 renal
U251 CNS = test system: U251 CNS
NCI-H226 lung = test system: NCI-H226 lung
BT-549 breast = test system: BT-549 breast
SK-OV-3 ovarian = test system: SK-OV-3 ovarian
UACC-257 melanoma = test system: UACC-257 melanoma
HCT-116 colon = test system: HCT-116 colon
A549 NSCLC = test system: A549 NSCLC
MCF7 breast = test system: MCF7 breast
MDA-MB-435 = test system: MDA-MB-435
PC-3 prostate = test system: PC-3 prostate
CCRF-CEM leukemia = test system: CCRF-CEM leukemia
TK-10 renal = test system: TK-10 renal
NCI-H522 lung = test system: NCI-H522 lung
SF-295 CNS = test system: SF-295 CNS
HL-60(TB) leukemia = test system: HL-60(TB) leukemia
LOX IMVI melanoma = test system: LOX IMVI melanoma
OVCAR-5 ovarian = test system: OVCAR-5 ovarian
NCI-H460 lung = test system: NCI-H460 lung
UACC-62 melanoma = test system: UACC-62 melanoma
HT29 colon = test system: HT29 colon
NCI-H23 lung = test system: NCI-H23 lung
SF-539 CNS = test system: SF-539 CNS
MOLT-4 leukemia = test system: MOLT-4 leukemia
OVCAR-8 ovarian = test system: OVCAR-8 ovarian
786-0 renal = test system: 786-0 renal
A498 renal = test system: A498 renal
MDA-MB-231 breast = test system: MDA-MB-231 breast
SN12C renal = test system: SN12C renal
OVCAR-3 ovarian = test system: OVCAR-3 ovarian
MALME-3M melanoma = test system: MALME-3M melanoma
ACHN renal = test system: ACHN renal
HCT-15 colon = test system: HCT-15 colon
KM12 colon = test system: KM12 colon
SNB-75 CNS = test system: SNB-75 CNS
T-47D breast = test system: T-47D breast
UO-31 renal = test system: UO-31 renal
HOP-62 NSCLC = test system: HOP-62 NSCLC

COc1ccc(C(=O)/C=C/c2ccc(OCc3ccc(Cl)cc3)cc2)cc1OC
604 µM: TGI (A498 renal)
206 µM: TGI (SNB-19 CNS)
> 1000 µM: TGI (HS 578T breast) | TGI (SW-620 colon) | TGI (IGROV1 ovarian) | TGI (COLO 205 colon) | TGI (SF-268 CNS) | TGI (EKVX NSCLC) | TGI (SK-MEL-28 melanoma) | TGI (NCI/ADR-RES ovarian) | TGI (SR leukemia) | TGI (DU-145 prostate) | TGI (HCC-2998 colon) | TGI (M14 melanoma) | TGI (SK-MEL-2 melanoma) | TGI (UACC-257 melanoma) | TGI (HCT-116 colon) | TGI (A549 NSCLC) | TGI (MCF7 breast) | TGI (MDA-MB-435) | TGI (CCRF-CEM leukemia) | TGI (TK-10 renal) | TGI (SF-295 CNS) | TGI (LOX IMVI melanoma) | TGI (OVCAR-5 ovarian) | TGI (NCI-H460 lung) | TGI (HT29 colon) | TGI (NCI-H23 lung) | TGI (SF-539 CNS) | TGI (MOLT-4 leukemia) | TGI (MDA-MB-231 breast) | TGI (SN12C renal) | TGI (ACHN renal) | TGI (HCT-15 colon) | TGI (KM12 colon) | TGI (T-47D breast) | TGI (UO-31 renal)
502 µM: TGI (RXF 393 renal)
296 µM: TGI (HL-60(TB) leukemia)
372 µM: TGI (OVCAR-4 ovarian)
365 µM: TGI (HOP-92 NSCLC)
639 µM: TGI (MALME-3M melanoma)
376 µM: TGI (UACC-62 melanoma)
607 µM: TGI (SK-OV-3 ovarian)
633 µM: TGI (OVCAR-8 ovarian)
635 µM: TGI (NCI-H226 lung)
435 µM: TGI (PC-3 prostate)
470 µM: TGI (786-0 renal)
586 µM: TGI (BT-549 breast)
314 µM: TGI (U251 CNS)
419 µM: TGI (HOP-62 NSCLC)
484 µM: TGI (SNB-75 CNS)
351 µM: TGI (NCI-H522 lung)
230 µM: TGI (OVCAR-3 ovarian)
773 µM: TGI (RPMI-8226 leukemia)
264 µM: TGI (SK-MEL-5 melanoma)
inactive: GI50 (HS 578T breast) 108 µM | GI50 (SW-620 colon) 196 µM | GI50 (RPMI-8226 leukemia) 98.4 µM | GI50 (OVCAR-4 ovarian) 44.2 µM | GI50 (IGROV1 ovarian) 118 µM | GI50 (COLO 205 colon) 253 µM | GI50 (SF-268 CNS) 159 µM | GI50 (EKVX NSCLC) 66.4 µM | GI50 (SK-MEL-28 melanoma) 366 µM | GI50 (NCI/ADR-RES ovarian) 109 µM | GI50 (SR leukemia) 148 µM | GI50 (DU-145 prostate) 202 µM | GI50 (HCC-2998 colon) 960 µM | GI50 (SK-MEL-5 melanoma) 64.3 µM | GI50 (M14 melanoma) 150 µM | GI50 (SK-MEL-2 melanoma) 252 µM | GI50 (HOP-92 NSCLC) 44.5 µM | GI50 (SNB-19 CNS) 42.7 µM | GI50 (RXF 393 renal) 90.6 µM | GI50 (U251 CNS) 58.8 µM | GI50 (NCI-H226 lung) 63.1 µM | GI50 (BT-549 breast) 81.8 µM | GI50 (SK-OV-3 ovarian) 142 µM | GI50 (UACC-257 melanoma) 244 µM | GI50 (HCT-116 colon) 40.8 µM | GI50 (A549 NSCLC) 77.1 µM | GI50 (MCF7 breast) 47.4 µM | GI50 (MDA-MB-435) 150 µM | GI50 (PC-3 prostate) 57.6 µM | GI50 (CCRF-CEM leukemia) 190 µM | GI50 (TK-10 renal) 396 µM | GI50 (NCI-H522 lung) 88.4 µM | GI50 (SF-295 CNS) 189 µM | GI50 (HL-60(TB) leukemia) 65 µM | GI50 (LOX IMVI melanoma) 91.3 µM | GI50 (OVCAR-5 ovarian) 499 µM | GI50 (NCI-H460 lung) 68.6 µM | GI50 (UACC-62 melanoma) 76.8 µM | GI50 (HT29 colon) 163 µM | GI50 (NCI-H23 lung) 172 µM | GI50 (SF-539 CNS) 159 µM | GI50 (MOLT-4 leukemia) 276 µM | GI50 (OVCAR-8 ovarian) 54.8 µM | GI50 (786-0 renal) 71.2 µM | GI50 (A498 renal) 141 µM | GI50 (MDA-MB-231 breast) 94.6 µM | GI50 (SN12C renal) 221 µM | GI50 (OVCAR-3 ovarian) 55.6 µM | GI50 (MALME-3M melanoma) 176 µM | GI50 (ACHN renal) 57.9 µM | GI50 (HCT-15 colon) 112 µM | GI50 (KM12 colon) 171 µM | GI50 (SNB-75 CNS) 111 µM | GI50 (T-47D breast) 71.9 µM | GI50 (UO-31 renal) 190 µM | GI50 (HOP-62 NSCLC) 110 µM
